The values that follow come from ChEMBL document CHEMBL1131908 (Bioorg Med Chem Lett, 1999).

In general, Ki refers to the dissociation constant of the complex between target and ligand, obtained from inhibition or displacement.

SMILES strings stand for the structures. Bounds are passed on as bounds.

Experiment [1] deals with T1, Kappa-type opioid receptor (Cavia porcellus, UniProt P41144). Put plainly: Ability to displace [3H]U-69593 from kappa opioid receptor.
In experiment [2] the target is T2, Mu-type opioid receptor (Rattus norvegicus, UniProt P33535). Put plainly: Ability to displace [3H]DAMGO from mu opioid receptor.
T2 sequence (P33535 whole entry): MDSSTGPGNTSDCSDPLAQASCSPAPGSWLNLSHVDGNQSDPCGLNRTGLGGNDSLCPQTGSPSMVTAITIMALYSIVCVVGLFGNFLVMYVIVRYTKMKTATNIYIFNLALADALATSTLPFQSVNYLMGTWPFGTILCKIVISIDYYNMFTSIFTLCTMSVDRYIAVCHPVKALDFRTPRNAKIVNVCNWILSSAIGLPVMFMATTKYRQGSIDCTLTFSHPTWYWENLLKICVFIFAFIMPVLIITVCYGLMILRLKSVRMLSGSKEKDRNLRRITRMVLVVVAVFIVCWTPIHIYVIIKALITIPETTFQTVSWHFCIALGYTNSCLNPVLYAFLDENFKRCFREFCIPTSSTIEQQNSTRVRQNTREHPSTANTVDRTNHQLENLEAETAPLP
Experiment [3] has as its target T3, Delta-type opioid receptor (Rattus norvegicus, UniProt P33533). Put plainly: Ability to displace [3H]DADL from delta opioid receptor.
For experiment [4], the target named is T2, Mu-type opioid receptor. Briefly: Ability to inhibit binding of [3H]DAMGO to mu opioid receptor.
Experiment [5] has as its target T3, Delta-type opioid receptor. Briefly: Ability to inhibit binding of SNC80 to delta opioid receptor.
Experiment [6] addresses T1, Kappa-type opioid receptor. Put plainly: Ability to inhibit binding of U-69,593 to kappa opioid receptor.
For experiment [7], the target named is Opioid receptors; mu & delta (Homo sapiens) (UniProt P41143+P35372). Put plainly: Ratio of binding affinities of mu and delta opioid receptors. The class given is protein assay.
Chain of Opioid receptors; mu & delta (Homo sapiens) (P35372 whole entry, looked up): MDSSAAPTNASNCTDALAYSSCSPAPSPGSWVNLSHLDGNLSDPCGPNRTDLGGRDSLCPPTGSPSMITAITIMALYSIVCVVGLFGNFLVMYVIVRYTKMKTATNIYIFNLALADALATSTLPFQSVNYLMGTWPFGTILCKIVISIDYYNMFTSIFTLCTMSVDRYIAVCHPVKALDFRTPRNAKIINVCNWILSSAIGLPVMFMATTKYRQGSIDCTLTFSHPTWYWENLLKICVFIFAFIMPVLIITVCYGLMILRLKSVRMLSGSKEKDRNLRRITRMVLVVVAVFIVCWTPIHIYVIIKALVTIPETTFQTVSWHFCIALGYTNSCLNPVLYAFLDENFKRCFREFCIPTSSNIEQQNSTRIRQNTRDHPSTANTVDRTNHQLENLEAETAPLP
Chain of Opioid receptors; mu & delta (Homo sapiens) (P41143 whole entry, looked up): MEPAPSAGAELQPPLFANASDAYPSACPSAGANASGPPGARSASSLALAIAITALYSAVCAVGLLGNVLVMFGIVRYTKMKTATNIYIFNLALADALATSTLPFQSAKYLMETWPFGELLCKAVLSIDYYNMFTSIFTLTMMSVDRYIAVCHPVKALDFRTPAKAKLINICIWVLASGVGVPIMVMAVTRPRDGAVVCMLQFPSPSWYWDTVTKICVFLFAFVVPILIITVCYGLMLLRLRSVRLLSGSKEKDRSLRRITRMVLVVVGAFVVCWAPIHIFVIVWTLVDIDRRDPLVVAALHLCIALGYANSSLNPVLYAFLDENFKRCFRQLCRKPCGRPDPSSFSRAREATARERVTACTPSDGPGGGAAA

T3 sequence (P33533 whole entry): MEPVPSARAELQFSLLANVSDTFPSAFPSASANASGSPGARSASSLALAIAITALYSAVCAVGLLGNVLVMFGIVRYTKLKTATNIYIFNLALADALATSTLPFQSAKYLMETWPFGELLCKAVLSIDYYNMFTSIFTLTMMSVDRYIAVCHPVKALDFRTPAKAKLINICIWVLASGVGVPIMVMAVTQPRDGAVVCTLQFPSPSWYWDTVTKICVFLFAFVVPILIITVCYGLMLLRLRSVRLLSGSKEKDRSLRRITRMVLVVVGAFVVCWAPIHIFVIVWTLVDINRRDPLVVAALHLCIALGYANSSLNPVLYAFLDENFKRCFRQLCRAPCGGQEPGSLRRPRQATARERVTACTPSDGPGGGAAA
T1 sequence (P41144 whole entry): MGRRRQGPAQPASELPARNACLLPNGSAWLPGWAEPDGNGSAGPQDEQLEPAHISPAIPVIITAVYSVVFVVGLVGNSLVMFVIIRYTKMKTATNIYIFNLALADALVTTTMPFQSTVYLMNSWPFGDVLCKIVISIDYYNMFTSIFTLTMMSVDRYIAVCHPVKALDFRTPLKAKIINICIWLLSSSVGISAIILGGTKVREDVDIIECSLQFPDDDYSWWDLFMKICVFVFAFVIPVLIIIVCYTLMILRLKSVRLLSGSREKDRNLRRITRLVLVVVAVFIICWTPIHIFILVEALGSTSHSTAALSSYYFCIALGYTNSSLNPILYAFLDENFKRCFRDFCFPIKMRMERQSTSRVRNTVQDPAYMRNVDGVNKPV

Turning to `COc1ccc2c3c1OC1c4[nH]c5ccccc5c4C[C@@]4(O)[C@@H](C2)N(CC2CC2)CC[C@]314` (some centres undefined), the Ki turned out to be 3910 nM in experiment [1]; 2510 nM in experiment [2]; 6.57 nM in experiment [3]; 411 nM in experiment [4]; 9 nM in experiment [5]; 1760 nM in experiment [6].
`O[C@@]12Cc3c([nH]c4ccccc34)C3Oc4c(OCc5ccccc5)ccc5c4[C@@]31CCN(CC1CC1)[C@@H]2C5` (some centres undefined): the Ki in experiment [1] turned out to be 728 nM; in experiment [2], 396 nM; in experiment [3], 103 nM. For the same compound, the Ratio in experiment [7] was determined as 4.
In the case of `O[C@@]12Cc3c([nH]c4ccccc34)C3Oc4c(OCCc5ccccc5)ccc5c4[C@@]31CCN(CC1CC1)[C@@H]2C5` (some centres undefined), the Ki is greater than 7040 nM in experiment [1], greater than 6250 nM in experiment [2] and 1040 nM in experiment [3]. Further, the Ratio in experiment [7] worked out at 7.
The matching figures for `O[C@@]12Cc3c([nH]c4ccccc34)C3Oc4c(OCCCc5ccccc5)ccc5c4[C@@]31CCN(CC1CC1)[C@@H]2C5` (some centres undefined): greater than 5320 nM, greater than 6250 nM, 99 nM and 54.
In turn, `Oc1ccc2c3c1O[C@H]1c4[nH]c5ccccc5c4C[C@@]4(O)[C@@H](C2)N(CC2CC2)CC[C@]314` [NALTRINDOLE] displayed an inhibition constant (Ki) in experiment [5] of 0.062 nM.
